The results in this text go back to US12441775B2, “BCL-W polypeptides and mimetics for treating or preventing chemotherapy-induced peripheral neuropathy and hearing loss” (Dana-Farber Cancer Institute, Inc., priority 2016, dated 2025).

Series [1] deals with mice. In words: Accelerating RotaRod motor function test. It counts as in vivo, mouse. Particulars: paclitaxel-treated mice, 4 mg/kg every other day for 8 days. As for the experimental part: Paclitaxel treatment and behavioral testing. 2 month old age-matched bclw−/− and bclw+/+ mice (17-30 g) of either sex were injected intraperitoneally (IP) with 4 mg/kg paclitaxel (Bristol-Myers Squibb) every other day for 8 days (4 total injections). Paclitaxel was prepared as 1 part 6 mg/ml paclitaxel stock solution diluted in vehicle (1:1 v/v Cremophor EL [EMD Millipore] and dehydrated ethanol) and 2 parts sterile saline and injected at 10 μl/g. Control mice were injected with 1 part vehicle and 2 parts saline. […] For three days prior to the baseline testing, mice were weighed, trained on an automated RotaRod apparatus (4 rpm for 1 min without falling), and habituated in von Frey cages. The next two days, baseline behavioral performance was assessed and averaged. The first paclitaxel injection was given three days later, and mice were weighed and behaviorally tested 10 days after the final injection. To assay motor function, mice were placed on the RotaRod with a ramp of 4-40 rpm and 0.4 rpm/sec acceleration, and latency to fall was measured. […] Withdrawal threshold was determined to be the applied force at which the animal withdrew the stimulated paw on at least 2 of 10 applications. […] Mouse behavior was assessed by an experimenter blind to genotype and condition.
(In general: Falling from the rotarod earlier than controls is read as motor impairment.)

In series [2] the test system is axonal mitochondria of E15 DRG neurons. As to the kind of experiment: TMRE measurement of mitochondrial membrane potential in microfluidic cultures. It counts as cell-based, rat. Particulars: paclitaxel added to distal axon compartment. As for the experimental part:
Microfluidic chambers cultures were prepared as described (see, e.g., Fenstermacher et al., Nature Neuroscience, 19:690-696 (2016)), with modifications. Briefly, 3×10^4E15 DRG neurons (4 μl volume) were plated into one channel of a microfluidic device (Xona Microfluidics, SND450) affixed to a PDL/laminin-coated cover glass (Fisherbrand Microscope Cover Glass; 24×40-1.5). Cells were plated in media with 0.3 μM AraC; 50 ng/mL NGF+BDNF was added to cell body wells, and 100 ng/ml was added to axon wells. On day 2, cell body neurotrophins were reduced to 10 ng/ml. On day 4, cell body neurotrophins were reduced to 1 ng/ml and axon neurotrophins were reduced to 10 ng/ml. For paclitaxel treatment experiments, 60 μM paclitaxel or 0.1% DMSO vehicle control was added on day 5 to axon wells for 48 hours. Cells were fixed at room temperature with 4% PFA diluted 1:2 in media for 10 min, then undiluted 4% PFA for an additional 10 min.
Tetramethylrhodamine ethyl ester measurements of mitochondrial membrane potential. […] Fluorescence intensity of axonal mitochondria was measured by dividing the fluorescence intensity of each mitochondria (Fm) by the background fluorescence intensity of a nearby cytoplasmic region (Fc). Fluorescence intensity was measured using NIH ImageJ software for 80 mitochondria per condition across three experiments, by an observer blind to condition.

The subject of series [3] is axons of E15 DRG sensory neurons. In words: Axonal degeneration assay in compartmented chamber cultures (degeneration index). It counts as cell-based, rat. Particulars: for axon degeneration (axonal fragmentation, degeneration index): 24 hours. As for the experimental part: Cell culture. Compartmented chamber (Campenot) cultures were prepared as described (see, e.g., Fenstermacher et al., Springer Protocols: Neuromethods, 103:105-124 (2015)), with modifications. Briefly, DRGs from embryonic day 15 (E15) rats of either sex were dissected and trypsinized. DRGs (1.2×10^5 cells) were plated in the center compartment of a Teflon divider (Camp10, Tyler Research; Campenot, 1982) affixed to a p35 culture dish coated with growth factor reduced Matrigel basement membrane (BD Biosciences) 1:45 in DMEM. Cultures were maintained in media consisting of Neurobasal (Invitrogen) with 2% B27 supplement (Invitrogen), 1% penicillin-streptomycin, 1% GlutaMAX (Life Technologies), 0.08% glucose, and 0.3 μM cytosine arabinoside (AraC) at 37° C., 7.5% CO2; BDNF+NGF (PeproTech) were added to the cell body compartment at a concentration of 10 ng/ml and to the axon compartment at a concentration of 100 ng/ml for 2d. On day 3, media was replaced and the AraC was omitted. On day 5, neurotrophins were removed from the cell body compartment and reduced to 1 ng/ml in the axon compartments for 3-5 days. […] For calpain inhibition experiments, 20 μM calpain inhibitor III (VWR) and paclitaxel were added simultaneously to distal axon compartment.
Axonal degeneration assay. Compartmented chamber cultures were fixed at room temperature with 4% PFA diluted 1:2 in media for 10 min, then undiluted 4% PFA for an additional 20 min. Cultures were permeabilized with 0.1% TritonX-100 for 10 min, blocked in 3% BSA and 0.1% Triton X-100 for 1 hour at room temperature, and incubated with mouse anti-Tuj1 (1:400; clone Tuj1; Covance) overnight at 4° C. Cultures were then incubated with goat anti-mouse AlexaFluor (1:1000; Invitrogen) for 1 hour at room temperature and counterstained with DAPI. Images of distal axon tips were obtained using a 40× air objective, and axonal degeneration was quantified as a degeneration index, as previously described (Cosker et al., Neuroscience, 33:5195-5207 (2013)). Apoptosis analysis was carried out on the same cultures by taking images in the cell body compartment and counting total and condensed nuclei in NIH ImageJ software by an observer blind to condition.
Protein and peptide introduction. Recombinant His-tagged Bclw, Bcl2, and BclxL proteins (R&D Systems) or control β-galactosidase protein were introduced into cell bodies or axons of compartmented chamber cultures as described (e.g., Cosker et al., Nature Neuroscience, 19:690-696 (2016)). Briefly, 1 μg/μ1 protein was introduced into cultures using 2 μl Chariot reagent (Active Motif). To confirm expression of His-tagged proteins, cell bodies and axons were lysed in nonionic detergent, and protein lysates were separated as above and blotted with the following antibodies: anti-His (1:1000; Novagen) and anti-pan-actin (1:1000; Cell Signaling Technology). FITC-tagged SAHB peptides (BH4-Bclw, BH4-Bcl2, and BH4-BclxL; stock solutions 1 mM in DMSO) were introduced into cell bodies or axons using 350 ng peptide and 2 μl of Chariot reagent diluted 1:10 in water. Control was no peptide with 2 μl of 1:10 diluted Chariot. To confirm peptide expression, cultures were processed for axonal degeneration assay as above, and FITC immunofluorescence was examined with a 40× air objective. Paclitaxel was added to cultures 1 hour after protein or peptide transfection.

In the case of `CC(=O)O[C@H]1C(=O)[C@@]2(C)[C@H]([C@H](OC(=O)c3ccccc3)[C@]3(O)C[C@H](OC(=O)[C@H](O)[C@@H](NC(=O)c4ccccc4)c4ccccc4)C(C)=C1C3(C)C)[C@]1(OC(C)=O)CO[C@@H]1C[C@@H]2O` [paclitaxel], in series [1], the “motor function (latency to fall)” value is recorded as “normal motor function”. Moreover, the “axonal mitochondrial membrane potential (TMRE Fm/Fc)” value in series [2] was “reduced axonal mitochondrial membrane potential”. Further, the “axon degeneration (axonal fragmentation, degeneration index)” value is given as “no effect” in series [3] (paclitaxel 30 nM added to cell body compartment) and “increase axon degeneration” in series [3] (paclitaxel 30 nM added to distal axon compartment). Moreover, the axonal degeneration result in series [3] (paclitaxel after shRNA knockdown of Bclw) was “further increased axonal degeneration”.
